From PubChem BioAssay (NCI)
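How tested: cells in 96-well plates exposed to compound for 48 hours at five concentrations. TGI: concentration producing complete growth inhibition.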

Key:
Test in all cases: NCI tumour cell line growth inhibition, 48 h
[1] = tested on: 786-0 renal
[2] = tested on: A498 renal
[3] = tested on: A549 NSCLC
[4] = tested on: ACHN renal
[5] = tested on: BT-549 breast
[6] = tested on: CAKI-1 renal
[7] = tested on: CCRF-CEM leukemia
[8] = tested on: COLO 205 colon
[9] = tested on: DU-145 prostate
[10] = tested on: EKVX NSCLC
[11] = tested on: HCC-2998 colon
[12] = tested on: HCT-116 colon
[13] = tested on: HCT-15 colon
[14] = tested on: HL-60(TB) leukemia
[15] = tested on: HOP-62 NSCLC
[16] = tested on: HOP-92 NSCLC
[17] = tested on: HS 578T breast
[18] = tested on: HT29 colon
[19] = tested on: IGROV1 ovarian
[20] = tested on: K-562 leukemia
[21] = tested on: KM12 colon
[22] = tested on: LOX IMVI melanoma
[23] = tested on: M14 melanoma
[24] = tested on: MALME-3M melanoma
[25] = tested on: MCF7 breast
[26] = tested on: MDA-MB-231 breast
[27] = tested on: MDA-MB-435
[28] = tested on: MDA-N
[29] = tested on: MOLT-4 leukemia
[30] = tested on: NCI-H226 lung
[31] = tested on: NCI-H23 lung
[32] = tested on: NCI-H460 lung
[33] = tested on: NCI-H522 lung
[34] = tested on: NCI/ADR-RES ovarian
[35] = tested on: OVCAR-3 ovarian
[36] = tested on: OVCAR-4 ovarian
[37] = tested on: OVCAR-5 ovarian
[38] = tested on: OVCAR-8 ovarian
[39] = tested on: PC-3 prostate
[40] = tested on: RPMI-8226 leukemia
[41] = tested on: RXF 393 renal
[42] = tested on: SF-268 CNS
[43] = tested on: SF-295 CNS
[44] = tested on: SF-539 CNS
[45] = tested on: SK-MEL-2 melanoma
[46] = tested on: SK-MEL-28 melanoma
[47] = tested on: SK-MEL-5 melanoma
[48] = tested on: SK-OV-3 ovarian
[49] = tested on: SN12C renal
[50] = tested on: SNB-19 CNS
[51] = tested on: SNB-75 CNS
[52] = tested on: SR leukemia
[53] = tested on: SW-620 colon
[54] = tested on: T-47D breast
[55] = tested on: TK-10 renal
[56] = tested on: U251 CNS
[57] = tested on: UACC-257 melanoma
[58] = tested on: UACC-62 melanoma
[59] = tested on: UO-31 renal
[60] = tested on: DLD-1 colon
[61] = tested on: DMS 114 small cell lung
[62] = tested on: KM20L2 colon
[63] = tested on: LXFL 529 NSCLC
[64] = tested on: M19-MEL melanoma
[65] = tested on: SNB-78 CNS
[66] = tested on: XF 498 CNS

Q: Which TGI [1] does the source give for `N#CC1N(C(=O)c2ccc(F)cc2)c2ccccc2N1C(=O)c1ccc(F)cc1` here?
A: The TGI was over 100 µM.

Q: And the TGI [2]?
A: The TGI was over 100 µM.

Q: And the TGI [3]?
A: The TGI was over 100 µM.

Q: And the TGI [4]?
A: The TGI was over 100 µM.

Q: And the TGI [5]?
A: The TGI was 77.3 µM.

Q: What about the TGI [6] of the same compound?
A: The TGI was over 100 µM.

Q: And the TGI [7]?
A: The TGI was 87.2 µM.

Q: And the TGI [8]?
A: Its TGI is 45.6 µM.

Q: What about the TGI [9] of the same compound?
A: The TGI was over 100 µM.

Q: What about the TGI [10] of the same compound?
A: Its TGI is over 100 µM.

Q: What about the TGI [11] of the same compound?
A: The TGI was over 100 µM.

Q: And the TGI [12]?
A: Its TGI is over 100 µM.

Q: What about the TGI [13] of the same compound?
A: Its TGI is over 100 µM.

Q: What about the TGI [14] of the same compound?
A: Its TGI is over 100 µM.

Q: And the TGI [15]?
A: Its TGI is over 100 µM.

Q: And the TGI [16]?
A: Its TGI is 68.8 µM.

Q: And the TGI [17]?
A: The TGI was over 100 µM.

Q: What about the TGI [18] of the same compound?
A: Its TGI is over 100 µM.

Q: What about the TGI [19] of the same compound?
A: Its TGI is over 100 µM.

Q: And the TGI [20]?
A: The TGI was over 100 µM.

Q: And the TGI [21]?
A: Its TGI is over 100 µM.

Q: What about the TGI [22] of the same compound?
A: The TGI was over 100 µM.

Q: And the TGI [23]?
A: Its TGI is over 100 µM.

Q: And the TGI [24]?
A: The TGI was over 100 µM.

Q: And the TGI [25]?
A: The TGI was over 100 µM.

Q: And the TGI [26]?
A: The TGI was over 100 µM.

Q: And the TGI [27]?
A: The TGI was over 100 µM.

Q: And the TGI [28]?
A: The TGI was over 100 µM.

Q: What about the TGI [29] of the same compound?
A: The TGI was 82.8 µM.

Q: And the TGI [30]?
A: The TGI was over 100 µM.

Q: And the TGI [31]?
A: Its TGI is over 100 µM.

Q: And the TGI [32]?
A: Its TGI is over 100 µM.

Q: What about the TGI [33] of the same compound?
A: The TGI was over 100 µM.

Q: And the TGI [34]?
A: Its TGI is 93.5 µM.

Q: What about the TGI [35] of the same compound?
A: The TGI was over 100 µM.

Q: What about the TGI [36] of the same compound?
A: The TGI was over 100 µM.

Q: What about the TGI [37] of the same compound?
A: Its TGI is over 100 µM.

Q: What about the TGI [38] of the same compound?
A: The TGI was over 100 µM.

Q: What about the TGI [39] of the same compound?
A: The TGI was over 100 µM.

Q: What about the TGI [40] of the same compound?
A: The TGI was 75.4 µM.

Q: What about the TGI [41] of the same compound?
A: The TGI was over 100 µM.

Q: And the TGI [42]?
A: Its TGI is over 100 µM.

Q: And the TGI [43]?
A: Its TGI is over 100 µM.

Q: What about the TGI [44] of the same compound?
A: The TGI was over 100 µM.

Q: And the TGI [45]?
A: Its TGI is over 100 µM.

Q: And the TGI [46]?
A: Its TGI is over 100 µM.

Q: What about the TGI [47] of the same compound?
A: The TGI was 63.2 µM.

Q: What about the TGI [48] of the same compound?
A: The TGI was over 100 µM.

Q: What about the TGI [49] of the same compound?
A: The TGI was over 100 µM.

Q: What about the TGI [50] of the same compound?
A: The TGI was over 100 µM.

Q: And the TGI [51]?
A: The TGI was over 100 µM.

Q: And the TGI [52]?
A: Its TGI is over 100 µM.

Q: And the TGI [53]?
A: The TGI was over 100 µM.

Q: What about the TGI [54] of the same compound?
A: The TGI was over 100 µM.

Q: And the TGI [55]?
A: The TGI was over 100 µM.

Q: What about the TGI [56] of the same compound?
A: Its TGI is over 100 µM.

Q: What about the TGI [57] of the same compound?
A: Its TGI is over 100 µM.

Q: What about the TGI [58] of the same compound?
A: Its TGI is over 100 µM.

Q: And the TGI [59]?
A: Its TGI is over 100 µM.

Q: What does the source list for `COc1ccc2[nH]c(C(=O)N3CC(CCl)c4ccc([N+](=O)[O-])cc43)cc2c1` (centres undefined)?
A: TGI [1]: > 100 µM; TGI [2]: > 100 µM; TGI [3]: > 100 µM; TGI [4]: > 100 µM; TGI [5]: > 100 µM; TGI [6]: > 100 µM; TGI [7]: > 100 µM; TGI [8]: > 100 µM; TGI [9]: > 100 µM; TGI [10]: > 100 µM; TGI [11]: > 100 µM; TGI [12]: > 100 µM; TGI [13]: > 100 µM; TGI [14]: > 100 µM; TGI [15]: > 100 µM; TGI [16]: > 100 µM; TGI [17]: > 100 µM; TGI [18]: > 100 µM; TGI [19]: > 100 µM; TGI [20]: > 100 µM; TGI [21]: > 100 µM; TGI [22]: > 100 µM; TGI [23]: > 100 µM; TGI [24]: > 100 µM; TGI [25]: > 100 µM; TGI [26]: > 100 µM; TGI [27]: > 100 µM; TGI [28]: > 100 µM; TGI [29]: > 100 µM; TGI [30]: > 100 µM; TGI [31]: > 100 µM; TGI [32]: > 100 µM; TGI [33]: > 100 µM; TGI [34]: > 100 µM; TGI [35]: > 100 µM; TGI [36]: > 100 µM; TGI [37]: > 100 µM; TGI [38]: > 100 µM; TGI [39]: > 100 µM; TGI [40]: > 100 µM; TGI [41]: > 100 µM; TGI [42]: > 100 µM; TGI [43]: > 100 µM; TGI [44]: > 100 µM; TGI [45]: > 100 µM; TGI [46]: > 100 µM; TGI [47]: > 100 µM; TGI [48]: > 100 µM; TGI [49]: > 100 µM; TGI [50]: > 100 µM; TGI [51]: > 88.7 µM; TGI [52]: > 100 µM; TGI [53]: > 100 µM; TGI [54]: > 100 µM; TGI [55]: > 100 µM; TGI [56]: > 100 µM; TGI [57]: > 100 µM; TGI [58]: > 100 µM; TGI [59]: > 100 µM

Q: What does the source list for `O=C(N/C(=C\c1ccc([N+](=O)[O-])cc1)c1nc2[nH]c(=S)[nH]c(=O)c2[nH]1)c1ccccc1`?
A: TGI [1]: > 100 µM; TGI [3]: > 100 µM; TGI [4]: > 100 µM; TGI [6]: > 100 µM; TGI [7]: > 100 µM; TGI [8]: > 100 µM; TGI [60]: > 100 µM; TGI [61]: > 100 µM; TGI [10]: > 100 µM; TGI [11]: > 100 µM; TGI [13]: > 100 µM; TGI [16]: > 100 µM; TGI [18]: > 100 µM; TGI [19]: > 100 µM; TGI [20]: > 100 µM; TGI [21]: > 100 µM; TGI [62]: > 100 µM; TGI [63]: > 100 µM; TGI [23]: > 100 µM; TGI [64]: > 100 µM; TGI [24]: > 100 µM; TGI [29]: > 100 µM; TGI [31]: > 100 µM; TGI [33]: > 100 µM; TGI [35]: > 100 µM; TGI [36]: > 100 µM; TGI [37]: > 100 µM; TGI [38]: > 100 µM; TGI [41]: > 100 µM; TGI [42]: > 100 µM; TGI [43]: > 100 µM; TGI [44]: > 100 µM; TGI [45]: > 100 µM; TGI [46]: > 100 µM; TGI [47]: > 100 µM; TGI [48]: > 100 µM; TGI [49]: > 100 µM; TGI [50]: > 100 µM; TGI [65]: > 100 µM; TGI [52]: > 100 µM; TGI [53]: > 100 µM; TGI [55]: > 100 µM; TGI [56]: > 100 µM; TGI [58]: > 100 µM; TGI [59]: > 100 µM; TGI [66]: > 100 µM
